In experiment [1] the target is Glutamate receptor ionotropic, kainate 2 (Homo sapiens, UniProt Q13002). The experiment is described as follows: Inhibition of [3H]KA binding to iontropic glutamate receptor 6.
Experiment [2] is described as follows: Inhibition of [3H]KA binding to human iontropic glutamate receptors 5 and KA-2.
The nature of experiment [3]: Inhibition of [3H]KA binding to human iontropic glutamate receptors 6 and KA-2.
A short description of experiment [4]: Inhibition of [3H]KA binding to human iontropic glutamate receptors 5 and 6.
In experiment [5] the target is Glutamate receptor ionotropic, kainate 1 (Homo sapiens, UniProt P39086).
Sequence of Glutamate receptor ionotropic, kainate 1 (P39086 whole entry): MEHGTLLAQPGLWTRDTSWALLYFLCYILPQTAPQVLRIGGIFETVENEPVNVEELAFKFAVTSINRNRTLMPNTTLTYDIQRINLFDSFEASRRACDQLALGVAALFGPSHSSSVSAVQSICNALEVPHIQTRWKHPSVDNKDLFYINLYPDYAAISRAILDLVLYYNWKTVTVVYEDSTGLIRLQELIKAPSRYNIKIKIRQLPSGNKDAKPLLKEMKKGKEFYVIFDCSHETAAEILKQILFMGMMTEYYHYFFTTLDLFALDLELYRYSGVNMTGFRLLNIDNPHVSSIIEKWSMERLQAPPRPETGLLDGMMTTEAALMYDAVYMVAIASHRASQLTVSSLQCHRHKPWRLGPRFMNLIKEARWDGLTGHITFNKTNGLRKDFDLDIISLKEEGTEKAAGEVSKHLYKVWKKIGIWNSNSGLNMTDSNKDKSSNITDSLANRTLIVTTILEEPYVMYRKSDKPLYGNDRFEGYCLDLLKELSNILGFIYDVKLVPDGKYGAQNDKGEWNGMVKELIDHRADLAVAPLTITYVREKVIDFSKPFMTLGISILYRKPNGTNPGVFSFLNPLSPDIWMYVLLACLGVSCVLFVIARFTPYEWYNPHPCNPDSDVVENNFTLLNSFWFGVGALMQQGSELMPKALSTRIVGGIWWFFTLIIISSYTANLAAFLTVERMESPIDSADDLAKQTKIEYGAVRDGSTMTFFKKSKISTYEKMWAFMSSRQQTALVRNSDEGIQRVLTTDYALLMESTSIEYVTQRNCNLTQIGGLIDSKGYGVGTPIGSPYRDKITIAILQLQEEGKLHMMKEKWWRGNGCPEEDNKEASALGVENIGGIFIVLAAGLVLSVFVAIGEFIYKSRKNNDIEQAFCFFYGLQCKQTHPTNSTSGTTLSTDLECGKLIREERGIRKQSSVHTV
Description: Inhibition of [3H]-KA binding to iontropic glutamate receptor 5
Experiment [6] addresses Glutamate receptor 2 (Homo sapiens, UniProt P42262). Description: biochemical.
Description: Inhibition of [3H]-AMPA binding to human GluR2 receptors expressed in HEK 293 cells

Bounds are passed on as bounds.

Sequence of Glutamate receptor 2 (P42262 whole entry): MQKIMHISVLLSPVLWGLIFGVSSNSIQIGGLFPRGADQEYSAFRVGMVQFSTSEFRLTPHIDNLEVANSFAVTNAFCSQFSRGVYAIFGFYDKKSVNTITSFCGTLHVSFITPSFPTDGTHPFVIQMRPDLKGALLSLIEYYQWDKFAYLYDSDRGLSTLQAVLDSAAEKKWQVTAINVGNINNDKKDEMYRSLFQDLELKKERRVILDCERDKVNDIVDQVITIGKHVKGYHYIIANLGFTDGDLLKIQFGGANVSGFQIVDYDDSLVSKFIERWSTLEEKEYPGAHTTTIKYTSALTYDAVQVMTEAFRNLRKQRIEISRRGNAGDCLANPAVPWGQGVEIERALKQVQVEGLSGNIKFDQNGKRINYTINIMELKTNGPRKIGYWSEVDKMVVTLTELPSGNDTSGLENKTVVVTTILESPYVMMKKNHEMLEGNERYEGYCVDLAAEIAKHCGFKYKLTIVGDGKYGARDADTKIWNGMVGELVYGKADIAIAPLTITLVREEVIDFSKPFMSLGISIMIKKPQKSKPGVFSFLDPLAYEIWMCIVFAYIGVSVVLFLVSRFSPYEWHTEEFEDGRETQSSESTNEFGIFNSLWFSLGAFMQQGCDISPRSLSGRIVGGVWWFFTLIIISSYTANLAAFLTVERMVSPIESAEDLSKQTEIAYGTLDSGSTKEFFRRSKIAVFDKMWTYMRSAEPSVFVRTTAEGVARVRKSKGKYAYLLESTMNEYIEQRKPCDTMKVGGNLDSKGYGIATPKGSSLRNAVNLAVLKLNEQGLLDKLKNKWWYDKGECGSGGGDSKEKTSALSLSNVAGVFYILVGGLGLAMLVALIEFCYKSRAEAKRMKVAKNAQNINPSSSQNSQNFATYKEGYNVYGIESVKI
Sequence of Glutamate receptor ionotropic, kainate 2 (Q13002 whole entry): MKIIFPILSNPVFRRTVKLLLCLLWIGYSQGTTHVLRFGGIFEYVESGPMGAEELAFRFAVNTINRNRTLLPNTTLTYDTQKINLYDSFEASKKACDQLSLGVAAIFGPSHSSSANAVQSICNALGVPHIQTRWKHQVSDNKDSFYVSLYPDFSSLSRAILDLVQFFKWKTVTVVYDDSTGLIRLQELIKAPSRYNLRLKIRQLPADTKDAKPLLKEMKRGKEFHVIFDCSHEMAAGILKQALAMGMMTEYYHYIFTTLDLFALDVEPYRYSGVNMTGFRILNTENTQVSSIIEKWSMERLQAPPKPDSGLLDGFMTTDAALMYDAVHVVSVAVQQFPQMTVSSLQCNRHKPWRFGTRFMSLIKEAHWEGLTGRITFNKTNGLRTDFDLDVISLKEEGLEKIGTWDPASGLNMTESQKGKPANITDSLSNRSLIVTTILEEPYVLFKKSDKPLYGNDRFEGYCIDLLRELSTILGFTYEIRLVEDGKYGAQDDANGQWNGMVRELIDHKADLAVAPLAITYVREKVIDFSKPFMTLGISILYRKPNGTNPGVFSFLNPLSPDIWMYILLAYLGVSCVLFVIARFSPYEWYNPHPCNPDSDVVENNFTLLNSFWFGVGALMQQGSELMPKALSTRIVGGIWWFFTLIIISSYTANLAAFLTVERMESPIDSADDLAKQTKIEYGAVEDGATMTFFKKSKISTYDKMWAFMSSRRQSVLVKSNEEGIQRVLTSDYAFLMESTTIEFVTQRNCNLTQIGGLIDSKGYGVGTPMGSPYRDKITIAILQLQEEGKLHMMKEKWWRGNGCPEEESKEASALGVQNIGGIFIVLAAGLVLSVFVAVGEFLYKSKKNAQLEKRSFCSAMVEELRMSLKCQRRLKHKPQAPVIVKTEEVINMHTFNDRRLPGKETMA

On to `CC(C)COC(=O)[C@@H]1C[C@H]2C[C@@H](Oc3ccccc3-c3nn[nH]n3)CC[C@H]2CN1`, for which the Ki was more than 100 µM in experiment [1]; 60.9 µM in experiment [2]; more than 100 µM in experiment [3]; 5.98 µM in experiment [4]; 7.37 µM in experiment [5]; more than 100 µM in experiment [6].
On to `O=C(O)[C@@H]1C[C@H]2C[C@@H](Nc3ccccc3-c3nn[nH]n3)CC[C@H]2CN1`, for which the Ki was more than 100 µM in experiment [1]; 9.86 µM in experiment [2]; more than 100 µM in experiment [3]; 1.37 µM in experiment [4]; 1.55 µM in experiment [5]; 5.51 µM in experiment [6].
As to `O=C(O)[C@@H]1C[C@H]2C[C@@H](CCc3nn[nH]n3)CC[C@H]2CN1` [TEZAMPANEL ANHYDROUS], the Ki in experiment [1] was more than 100 µM; in experiment [2], 16.2 µM; in experiment [3], more than 100 µM; in experiment [4] it was 2.1 µM; in experiment [5], 4.16 µM.
With `NS(=O)(=O)c1cccc2c1c([N+](=O)[O-])cc1nc(O)c(O)nc12` [NBQX], the inhibitory constant (Ki) in experiment [2] is 26.6 µM; in experiment [3], 0.6 µM; in experiment [4], 6.12 µM.
In the case of `CCC(CC)COC(=O)[C@@H]1C[C@H]2C[C@@H](Nc3ccccc3-c3nn[nH]n3)CC[C@H]2CN1`, the Ki is more than 100 µM in experiment [1]; more than 100 µM in experiment [2]; more than 100 µM in experiment [3]; 13.7 µM in experiment [4]; 31.8 µM in experiment [5]; more than 100 µM in experiment [6].
For the compound `O=C(O)c1ccc(C[C@H]2CC[C@H]3CN[C@H](C(=O)O)C[C@H]3C2)cc1`, the inhibition constant (Ki) in experiment [1] was more than 100 µM; in experiment [2], more than 100 µM; in experiment [3], more than 100 µM; in experiment [4], 10.2 µM; in experiment [6] it was more than 100 µM.
With `O=C(O)[C@@H]1C[C@H]2C[C@@H](Oc3ccccc3-c3nn[nH]n3)CC[C@H]2CN1`, the inhibitory constant (Ki) is more than 100 µM in experiment [1]; 7.89 µM in experiment [2]; more than 100 µM in experiment [3]; 1 µM in experiment [4]; 1.69 µM in experiment [5]; 8.26 µM in experiment [6].

For orientation: Ki means the equilibrium dissociation constant of an inhibitor or competing ligand from its target. Read a high Ki as a looser hold on the target.

These data come from ChEMBL document CHEMBL1139549, “Two prodrugs of potent and selective GluR5 kainate receptor antagonists actives in three animal models of pain” (J Med Chem, 2005).
